{"source": "patent US20070146686A1", "about": "“Non-invasive method to monitor microcirculation” (priority 2004, published 2007)", "system": "skin", "details": "topical application on the skin; images at 0.5, 2, 5, 10 minutes following application; listed as methyl nicotineate amide", "from_the_text": "Another way of administering the agent is by topical application on the skin. […] This agent is frequently used in skin testing for assessing the sensitivity of the skin.\nIn this example a modern digital camera technology is utilized, exemplified by Canon IXUS V3, Canon Svenska AB, Solna, Sweden. […] In this approach a flash of white light—or alternatively continuous light—(A, FIG. 4) illuminates the skin (B, FIG. 4) under study after having been linearly polarized by a polarizer (C, FIG. 4) positioned in front of the flash lamp—or a lamp delivering continuous light—(D, FIG. 4). In the skin surface (E, FIG. 4), a fraction of the polarized light is directly reflected towards the camera aperture with essentially no change in polarization. […]\nAt least two of the normalized data matrixes representing the different colors are then further processed to form an output data matrix (L, FIG. 4), where each value corresponds to the amount of vasodilatation in the actual source point in tissue. In this example, the algorithm generates an output data matrix of which each element is calculated by subtracting the green value from the red value and divides the difference by the sum of the red and the green value of each element of the normalized original data matrixes."}
{"substance": "methyl nicotinate amide", "values": [{"measurement": "local vasodilatation in skin", "result": "Vasodilatation"}]}
